What is called solubility is the dissolved amount per volume that the medium holds. Low readings indicate a poorly soluble substance, high ones a readily soluble substance. One may read the IC50 as the concentration that gives 50% inhibition. High values mean a need for much substance, low ones inhibition by little substance.

Series [1] relates to murine leukemia cell line L1210/O. The experiment in a line: In vivo L1210 tumor model (ascites). The conditions noted are these: Q2d×6, IP, intralipid. The arrangement: species or system mouse. From the text: 6-MP and pro-drug forms of 6-MP were screened for in vivo activity against the murine leukemia cell line L1210/O (mouse, lymphocytic leukemia). The cell line was obtained from Southern Research Institute (Birmingham, Ala.) and grown in DMEM supplemented with 10% horse serum. L 1210/O cells were subcultured two times per week and log phase cultures (viability≧95%) were used for all in vivo experiments. Female CD2F1 mice (Taconic Farms, Germantown, N.Y.) at 7-8 weeks of age were used for study. Following one week of acclimation, mice were implanted i.p. with L1210/0 cells (5×10^5 cells/mouse) at designated day 0. The mice were randomly assigned to experimental groups (8-10/group). The groups included control, 6-MP and PEG-6-MP conjugates. 6-MP was solubilized in 3% DMSO and suspended in intralipid and administered Q2d×6, IP. PEG-6-MP was dissolved in phosphate buffer (pH 5.8) and administered Q4d×3, IV. Control groups received vehicle (intralipid or phosphate buffer). The mice were monitored for up to 40 days, and the treatment was evaluated as percentage of increase in life span (ILS).

The test system of series [2] is Lung M109 syngeneic solid tumors. Nature of the series: In vivo M109 tumor model. On the set-up: species or system Balb/C mice. To be noted: i.v. day 1 & 4; for T/C (%) at Day 18: control median tumor volume approx. 1000 mm^3; for T/C (%) at Day 25: control median tumor volume approx. 2000 mm^3. The procedure:
M109 cells (NCI), derived from donor mice, were grown and expanded in tissue culture for in vivo implantation. Cells were grown in EMEM with 10% FBS and 1% streptomycin/penicillin media, kept in an incubator at 37° C. with 5% CO2and split twice a week. Cells were trypsinized, harvested, washed, counted and prepared in PBS for transport to the vivarium. Cells were kept on ice until implantation was conducted with minimum lag time. A cell suspension of approximately 5×10^6 cells/mL was used. Balb/C mice were implanted subcutaneous with 100 μL of the above cell suspension (Day 0). Treatments were administered intravenously on Day 1 and Day 4. Compound doses were based on the content of 6-MP. Body weight and tumor volume were then measured twice weekly until the group's median tumor volume exceeded 2000 mm^3. The tumor volume for each mouse was determined by measuring two dimensions with calipers and calculated using the formula: tumor volume=(length×width^2)/2. Drug effects were determined by comparing tumor growth in treated versus control (no vehicle) mice. Two types of endpoints were used as the basis for comparison: (a) the percent difference in tumor volume (% T/C), measured when the control group's median tumor volume reached approximately 800-1100 mm^3 (exponential growth phase) and (b) again when the control group's median tumor volume was approximately 2000 mm^3.

The next series can be described thus: Solubility in water. It is filed as physicochemical.
A further series relates to P388/0 cell lines. Nature of the series: Cytotoxicity assay, Alamar Blue cell growth. Format: cell-based. To be noted: Mus musculus, 72 h, P388/0 cells, 3 days. The method, then:
Cell Lines and Cytotoxicity Assays. Studies using P388/0 cell lines for IC50 (drug concentration inhibiting growth of cells by 50%) were maintained and conducted as previously reported. Briefly, for IC50 determination, cells were seeded into the microwell plates at a density of 2×10^3 cells per 50 μL per well. Plates were incubated at 37° C. in a humidified incubator with 5% CO2 for 3 days. Cell growth was measured by the addition of 10 μL/well of Alamar Blue (Alamar Biosciences, Inc., Sacramento, Calif.) and the plates were incubated a further 4 hours at 37° C. The IC50values for each compound were determined from absorbance versus dilution factor plots. All cell cultures for animal implantation were maintained at 37° C. in a humidified atmosphere of 5% CO2/[…] and subcultured once a week. All cell lines were periodically tested for Mycoplasma and were Mycoplasma free.
(Alamar Blue is a resazurin reagent that responds to reducing activity.)

Setting [3] is: total dose 200 mg/kg (6-MP content).

Marks after values point to notes of the source that are not given here.

For `Sc1ncnc2nc[nH]c12` [6-MP (1), 6-mercaptopurine], the “% ILS (percent increase in life span)” value in series [1] (total dose 90 mg/kg) is listed as 31.8%; in series [1] (total dose 240 mg/kg), 52.5* %. Moreover, the “Anti-tumor activity, inhibiting the growth of M109 solid tumors (in words)” value in series [2] (Balb/C mice) is “ineffective”. Further, the “T/C (%) at Day 18” value in series [2] (setting [3]) worked out at 144%. Further, in series [2] (setting [3]), the “T/C (%) at Day 25” value is reported as 184%. Besides, the solubility in “Solubility in water” is under 100 µg/mL.

In turn, `Nc1nc2nc[nH]c2c(=S)[nH]1` [6-TG (2), 6-thioguanine] came in with an IC50 with P388/0 cell lines of 360 nM. In addition, in series [2] (total dose 40 mg/kg), the “T/C (%) at Day 18” value worked out at 82% and the “T/C (%) at Day 25” value is on record as 78%.

(Values after US7262164B2, “Polymeric thiol-linked prodrugs employing benzyl elimination systems” (Enzon, Inc., priority 2001, dated 2007).)
